In patent publication US7067486B2, “Acetylcholinesterase-derived peptides and uses thereof” (priority 1999, dated 2006):
Marks after values point to notes of the source that are not given here.

Legend:
Assay type in all cases: cell-based, human
[1] = system: CD34^+ cells; assay: Cell phenotyping of CD34+ liquid cultures by flow cytometry (CD34, CD33, CD15, CD41)
From the text: Cell Source: UCB was collected, following informed consent of the parents and with the approval of the Sourasky Medical Center Ethics Committee, as previously described [Grisaru et al. (1999a) Am. J. Obstet. Gynecol, 180, 1240–1243]. Following 1:1 (v/v) dilution in Iscove's modified Dulbecco medium (IMDM, Beit Haemek, Israel), mononuclear cells were separated using 3% gelatin (Difco, Detroit, Mich.) and Ficoll-Hypaque gradients (<1.077 g/ml; Pharmacia, Uppsala, Sweden) [Pick et al. (1998) Br. J. Haematol. 103, 639–50]. CD34^+ cells were enriched using CD34 immunoglobulin-coated magnetic beads (CD34 progenitor cell selection system, Dynal, Norway).CD34^+ cells analysis was performed by flow cytometry (Becton Dickinson Immunocytochemistry System Inc., San Jose, Calif.), using CD34-PE (Becton Dickinson Immunocytometry System, Inc.) and CD45-FITC (Dako, Glostrup, Denmark) monoclonal antibodies. […] Liquid Cultures: UCB CD34^+ cells were set for liquid cultures at a concentration of 10^5/mL in IMDM, containing 10% autologous plasma, 2 mM L-glutamine (Sigma Chemical Co., St Louis, Mo.), penicillin ([…]), streptomycin ([…]), amphotericin B (2×10^−5 M) (Sigma Chemical Co.), and heparin (20 IU/mL, Gibco, Grand Island, N.Y.), all in a fully humidified atmosphere at 37° C. and 5% CO2. The following elements were added where noted: • 1. […] Endothlial Growth factors: Epidermal growth factor (EGF 10 ng/ml, Sigma Chemical Co.), basic Fibroblast growth factor (bFGF 20 ng/ml, Sigma Chemical Co.) incubated in a serum free medium (SFM) for 48 hr. • 3. Stress mimicking conditions: Hydrocortisone sodium succinate (Abic Ltd., Netanya, Israel) at concentrations equivalent to normal, intermediate and stress serum cortisol levels (0.1, 0.6 and 1.2 μM, respectively (De Vroede et al., Arch. Des. […] Antisense oligonucleotides: 3′-terminal 2′-O-Methylated 15- and 20-mer oligodeoxynucleotides in the antisense (AS) orientation, targeted against the common sequence domain in human AChEmRNA and BuChE mRNA, as control, […], as detailed elsewhere [Grisaru et al. (1999b) Mol. Cell. Biol. 19, 788–95]. • 5. AChE C-terminal peptides: The following C-terminal peptides of the AChE synaptic (ASP, also denoted SEQ ID: No. 2) and readthrough (ARP, also denoted SEQ ID: No. 1) isoforms were synthesized using a 433A peptide synthesizer (PE Applied Biosystems, Inc., Norwalk, Conn.). • ASP: 1-[…]-40, also denoted as SEQ ID: No. 2. • ARP: 1-[…]-26, also denoted as SEQ ID: No. 1.
(§1) Culture Analyses: Twenty-four hr liquid cultures served for cytochemical staining, in situ hybridization, and cell proliferation assay by 5-bromo-2′-deoxy-Uridine (BrdU) incorporation [Grisaru et al. (1999b) id ibid.]. Twenty-eight day liquid cultures were sampled every 6–8 days for viable cell counting (using trypan blue dye exclusion), cell phenotyping (CD34^+, CD33^+ and CD41^+ quantification using flow cytometry, with CD34-PE, CD33-FITC (Immunotech/Coulter, Hialeah, Fla.), CD41-FITC (Immunoquality Products, Groningen, Netherlands) and CD45-FITC monoclonal antibodies), and growth of progenitor colony (granulocyte-macrophage and megakaryocytic), using previously described techniques (Pick et al. (1998) id ibid.). […] 11, 1049–57]. Nuclear staining w with 4′,6-diamidino-2- phenylindole [DAPI, see e.g., Peterson et al. (1999) Genetics 152, 427–439].

[2] = system: AChEmRNA transcripts (S, E, R); assay: In situ hybridization of AChEmRNA transcripts in cultured CD34+ cells, confocal quantification; conditions: 24 hr
Protocol: In Situ Hybridization: In situ hybridization procedures, were performed on cultured cells and human fetal tissues, as detailed elsewhere [Grisaru et al. (1999b) id ibid; Kaufer et al. (1998) id ibid.]. Cultured cells were centrifuged at 300× g and fixed, using 4% paraformaldehyde, to collagen-coated cover slips placed on the bottom of the culture well. […] 5′-Biotinylated, 2′-O-methylated AChEcRNA probes complementary to 3′-alternative human ACHE exons were employed. Detection and quantification of the various AChEmRNA transcripts in fetal tissues were performed as previously described [Grisaru et al. (1999b) id ibid.]. Confocal microscopy scans of the culture-derived cells were obtained using a MRC-1024 Bio-Rad confocal microscope (Hemel Hempsted Herts., UK). A projection was built from each cell image and specific criteria were set for size and intensity of the Fagt Red fluorescence. […]
The assumption that hematopoietic ACHE gene expression is modulated under stress was tested in CD34^+ cells cultured for 24 hr with increasing doses of hydrocortisone. Treated cells were subjected to cytochemical staining for AChE activity as well as to high resolution in situ hybridization followed by confocal microscopic quantification of labeling density. […] Because each cRNA probe has its own characteristic hybridization affinity, each transcript was quantified separately. […]

[3] = system: CD34^+ cells; assay: Viable cell expansion in CD34+ liquid cultures (trypan blue exclusion); conditions: day 14; seeded at 50,000 cells/well; ARP 2 nM, cortisol 1.2 μM, ASP 2 nM, SCF 50 ng/ml, AS1 20 pM, PBAN 2 nM
From the text: Cell Source: UCB was collected, following informed consent of the parents and with the approval of the Sourasky Medical Center Ethics Committee, as previously described [Grisaru et al. (1999a) Am. J. Obstet. Gynecol, 180, 1240–1243]. Following 1:1 (v/v) dilution in Iscove's modified Dulbecco medium (IMDM, Beit Haemek, Israel), mononuclear cells were separated using 3% gelatin (Difco, Detroit, Mich.) and Ficoll-Hypaque gradients (<1.077 g/ml; Pharmacia, Uppsala, Sweden) [Pick et al. (1998) Br. J. Haematol. 103, 639–50]. CD34^+ cells were enriched using CD34 immunoglobulin-coated magnetic beads (CD34 progenitor cell selection system, Dynal, Norway).CD34^+ cells analysis was performed by flow cytometry (Becton Dickinson Immunocytochemistry System Inc., San Jose, Calif.), using CD34-PE (Becton Dickinson Immunocytometry System, Inc.) and CD45-FITC (Dako, Glostrup, Denmark) monoclonal antibodies. […] Liquid Cultures: UCB CD34^+ cells were set for liquid cultures at a concentration of 10^5/mL in IMDM, containing 10% autologous plasma, 2 mM L-glutamine (Sigma Chemical Co., St Louis, Mo.), penicillin ([…]), streptomycin ([…]), amphotericin B (2×10^−5 M) (Sigma Chemical Co.), and heparin (20 IU/mL, Gibco, Grand Island, N.Y.), all in a fully humidified atmosphere at 37° C. and 5% CO2. The following elements were added where noted: • 1. Hematopoietic growth factors: Interleukin 3 (IL3, 5 ng/mL, Immunex, Seattle, Wash.), interleukin 6 (IL6, 50 ng/mL, R&D Systems, Minneapolis, Minn.), TPO (1 ng/mL, R&D Systems), stem cell factor (SCF, 10 ng/mL, R&D Systems), FLT-3 ligand (FLT3, 50 ng/mL, R&D Systems), granulocyte-macrophage colony stimulating factor (GM-CSF, 50 ng/mL, Biogenesis Ltd, Bournemouth, UK) and combinations of the above, for 24 hr to 28 days (supplemented every 4 days). • 2. Endothlial Growth factors: Epidermal growth factor (EGF 10 ng/ml, Sigma Chemical Co.), basic Fibroblast growth factor (bFGF 20 ng/ml, Sigma Chemical Co.) incubated in a serum free medium (SFM) for 48 hr. • 3. […] AChE C-terminal peptides: The following C-terminal peptides of the AChE synaptic (ASP, also denoted SEQ ID: No. 2) and readthrough (ARP, also denoted SEQ ID: No. 1) isoforms were synthesized using a 433A peptide synthesizer (PE Applied Biosystems, Inc., Norwalk, Conn.). • ASP: 1-[…]-40, also denoted as SEQ ID: No. 2. • ARP: 1-[…]-26, also denoted as SEQ ID: No. 1. […]

[4] = system: AChE; assay: Cytochemical staining of AChE catalytic activity in CD34+ cells; conditions: 24 hr
From the text: as §1

[5] = 2-week primary cultures of CD34+ cells from 1 to 3 individuals, ± SEM where noted
[6] = 1.2 μM hydrocortisone (stress-associated level)
[7] = day 14, seeded at 50,000 cells/well, ARP 2 nM, cortisol 1.2 μM, ASP 2 nM, SCF 50 ng/ml, AS1 20 pM, PBAN 2 nM

## TPO
[1]; [5]
  MK (CD41^+) fold expansion: 3.93 ± 3.56 fold
  Myeloid (CD33^+) fold expansion: 3.51 ± 2.23 fold

## C[C@]12CCC(=O)C=C1CC[C@@H]1[C@@H]2[C@@H](O)C[C@@]2(C)[C@H]1CC[C@]2(O)C(=O)COC(=O)CCC(=O)[O-].[Na+] [hydrocortisone, Hydrocortisone sodium succinate, reference compound]
[2]; 0.60 μM hydrocortisone, above level at 0.10 μM, CD34+ cells
  selective increase in "readthrough" AChE-R mRNA transcript: 40%
[2]; [6]
  labeling of all 3 AChEmRNA transcripts: enhanced
[1]; [7]
  CD33^+ (early myeloids): 45.0 cells per culture × 10^−3
  CD33^+ and CD15^+ (total myeloids): 73.0 cells per culture × 10^−3
  CD34^+ (early progenitors): 13.0 cells per culture × 10^−3
  CD41^+ (megakaryocytes): 10.1^b cells per culture × 10^−3
[3]
  Total viable cells: 80.0 cells per culture × 10^−3
[4]; 0.60 μM hydrocortisone
  enzyme activity of CD34+ cells: no change
[4]; [6]
  catalytic activity of the stem cell-associated enzyme: intensified
